Results from patent US7767651B2, “Spiroketal derivatives and use thereof as diabetic medicine” (Chugai Seiyaku Kabushiki Kaisha, priority 2005, dated 2010).

Key:
human SGLT2 = target: T1, human SGLT2 (Homo sapiens, UniProt P31639); test: Inhibitory activity against methyl-α-D-glucopyranoside uptake of human SGLT2; format: cell-based; conditions: SGLT2 inhibition; methyl-α-D-(U-14C)glucopyranoside uptake in CHO-K1 cells stably expressing human SGLT2, 45 minutes at 37° C.
T1 construct: expressed in transfected cells; host or cells: CHO-K1
T1 sequence (P31639 1-672): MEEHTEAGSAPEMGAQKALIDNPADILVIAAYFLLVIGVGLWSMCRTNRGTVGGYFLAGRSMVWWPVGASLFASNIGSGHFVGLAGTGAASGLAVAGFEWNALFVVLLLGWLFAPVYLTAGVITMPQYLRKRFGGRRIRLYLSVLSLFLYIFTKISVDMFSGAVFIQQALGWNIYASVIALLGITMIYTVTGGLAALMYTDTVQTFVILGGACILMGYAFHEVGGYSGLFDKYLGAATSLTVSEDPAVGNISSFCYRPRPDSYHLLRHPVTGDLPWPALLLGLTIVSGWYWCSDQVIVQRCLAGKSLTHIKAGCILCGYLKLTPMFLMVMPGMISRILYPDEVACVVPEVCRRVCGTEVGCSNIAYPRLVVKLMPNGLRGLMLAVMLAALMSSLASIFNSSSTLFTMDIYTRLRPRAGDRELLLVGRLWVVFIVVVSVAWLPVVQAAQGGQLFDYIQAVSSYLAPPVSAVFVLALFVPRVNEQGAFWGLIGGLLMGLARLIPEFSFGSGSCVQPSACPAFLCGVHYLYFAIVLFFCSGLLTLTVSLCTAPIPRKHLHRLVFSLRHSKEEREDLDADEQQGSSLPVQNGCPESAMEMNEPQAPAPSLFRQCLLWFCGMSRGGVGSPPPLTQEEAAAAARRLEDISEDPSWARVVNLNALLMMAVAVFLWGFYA
Text: Evaluation of Inhibitory Activity Against methyl-α-D-glucopyranoside uptake of human Na^+-glucose cotransporter (SGLT1 and SGLT2)
Human SGLT2 cDNA was amplified by PCR with a cDNA library derived from human kidney (Clontech) as a template, synthetic DNA primers and KOD+ DNA Polymerase. The amplified cDNA was inserted into pcRII-Topo vector by using a Topo TA Cloning Dual Promoter kit. E. coli competent cells (TPO10) were transformed with the plasmid vector, cultured in LB medium containing ampicillin (50 mg/L) to grow ampicillin-resistant clones. The plasmid vector containing human SGLT2 cDNA was purified from the clone in a standard manner. Human SGLT2 cDNA added restriction enzyme recognition sites (Xho I at 5′-end, Hind III at 3′-end) was amplified by PCR with the plasmid vector as a template, synthetic DNA primers containing an additional restriction enzyme recognition site and KOD+ DNA Polymerase. This amplified cDNA was digested with Xho I and Hind III, and ligated into expression vector pcDNA3.1(−) digested with Xho I and Hind III by using a Rapid DNA Ligation kit. E. coli competent cells (DH5α) were transformed with the ligated expression vector and grown in ampicillin-containing LB medium. Human SGLT2 expression vector was purified from the ampicillin-resistant clone in a standard manner.
The human SGLT1 expression vector or the human SGLT2 expression vector was digested with the restriction enzyme Pvu I and transfected into CHO-Kl cells with FuGENE (Roche Diagonostics). After the transfection, the cells were cultured at 37° C. in the presence of 5% CO2 for about 3 weeks in DMEM medium (Gibco) containing penicillin (50 U/mL, SIGMA), streptomycin (50 mg/L, SIGMA), geneticin (200 mg/L, Nacalai Tesque, Inc., Japan) and 20% fetal bovine serum to obtain geneticin-resistant clones. Among these clones, clones stably expressing human SGLT1 or human SGLT2 were selected by the evaluating the sodium-dependent uptake activity of sugar (methyl-α-D-glucopyranoside). […]

[1] = intravenously administered to rats; Nonpatent Document 2; cited from earlier work
[2] = test system: sugar transporters of the facilitated diffusion type; conditions: aglycon of phloridzin; reported; cited from earlier work

With `CCc1ccc(Cc2ccc3c(c2)[C@]2(OC3)O[C@H](CO)[C@@H](O)[C@H](O)[C@H]2O)cc1` [Example 1, 1,1-Anhydro-1-C-[5-(4-ethylphenyl)methyl-2-(hydroxymethyl)phenyl]-β-D-glucopyranose] as the compound, how does the IC50 (human SGLT2) read?
The IC50 was 4.2 nM.

With `OC[C@H]1O[C@]2(OCc3ccc(Cc4cc5ccccc5s4)cc32)[C@H](O)[C@@H](O)[C@@H]1O` [Example 2, 1,1-Anhydro-1-C-[5-(2-benzothiophenyl)methyl-2-(hydroxymethyl)phenyl]-β-D-glucopyranose] as the compound, how does the IC50 (human SGLT2) read?
The IC50 was 4 nM.

Which IC50 (human SGLT2) does the source give for `CC(C)c1ccc(Cc2ccc3c(c2)[C@]2(OC3)O[C@H](CO)[C@@H](O)[C@H](O)[C@H]2O)cc1` [Example 4, 1,1-Anhydro-1-C-[5-(4-isopropylphenyl)methyl-2-(hydroxymethyl)phenyl]-β-D-glucopyranose] here?
Its IC50 is 5 nM.

Which results are given for `O=C(CCc1ccc(O)cc1)c1c(O)cc(O)cc1O` [phloretin]?
adverse effect on intracerebral glucose levels [1]: reducing intracerebral glucose levels; inhibition of sugar transporters of the facilitated diffusion type [2]: strongly inhibit
